Reference: patent US20250122207A1, “AP2 ASSOCIATED KINASE 1 INHIBITORS AND USES THEREOF” (Satellos Bioscience Inc., priority 2023, published 2025)

Legend:
AAK1 = AAK1 (Homo sapiens, UniProt Q2M2I8); assay: pAP2M1 cell-based assay (in-cell Western); conditions: Hela cells co-transfected with AP2M1 and AAK1, 3 hr treatment; class symbols; read-out: AAK1 In-cell Western: IC50
Excerpt: pAP2M1 Cell-Based Assay (in-Cell Western):
The plate was read on Licor Odyssey CLx imaging system (LICOR) to acquire fluorescence intensity at 700 channel and 800 channel.
Data analysis: Fluorescence intensity at 700 channel served as internal standard and 800 channel were normalized with 700 channel.

[1] = target: T1, AAK1 (amino acids T27-A365) (Homo sapiens, UniProt Q2M2I8); assay: AAK1 pSENs assay; type: biochemical; conditions: class symbols; read-out: AAK1 pSENs: EIC50
T1 construct: against AAK1 (amino acids T27-A365); 6His (N, cleaved yes)
T1 sequence (Q2M2I8 27-365): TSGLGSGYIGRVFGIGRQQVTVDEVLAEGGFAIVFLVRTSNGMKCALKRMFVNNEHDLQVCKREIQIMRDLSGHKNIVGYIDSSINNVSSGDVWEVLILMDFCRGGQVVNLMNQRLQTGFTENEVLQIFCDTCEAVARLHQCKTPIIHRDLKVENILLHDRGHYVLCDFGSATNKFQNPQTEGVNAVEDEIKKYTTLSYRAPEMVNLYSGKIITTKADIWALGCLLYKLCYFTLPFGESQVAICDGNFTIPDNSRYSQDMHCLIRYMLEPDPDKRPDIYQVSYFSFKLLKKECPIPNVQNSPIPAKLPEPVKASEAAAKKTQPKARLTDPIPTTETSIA
Description: The recombinant proteins were independently expressed in Escherichia coli BL21(DE3) cells cultured in Luria-Bertani (LB) medium until OD600 reached 0.6-0.8, then cooled to 15° C. and supplemented with 0.5 mM isopropyl 1-thio-D-galactopyranoside (IPTG) induce protein expression 16 h. Cells were harvested and resuspended in lysis buffer (50 mM HEPES pH 7.5, 500 mM NaCl, 5 mM imidazole, 5% glycerol, 0.5 mM Tris (2-carboxyethyl) phosphine (TCEP), cOmplete Protease Inhibitor Tablet (Roche)) and lysed by microfludics high pressure homogenizer (UH-06, Union-Biotech). Proteins were purified using […] chromatography (His FF column, Bestchrom) and eluted stepwise in binding buffer with 20-300 mM imidazole. Removal of the hexahistidine tag was performed at 4° C. overnight using recombinant TEV protease and reacted with BirA to obtain the corresponding biotinylated-AAK1, BIKE or GAK proteins. Further separated in the reverse Strep column (Strep-Tactin® XT, IBA). The Biotin elution sample was collected containing untagged biotinylated protein was then purified by Ion-exchange chromatography (Mono Q 10/100 GL, Cytiva) and Size-exclusion chromatography (HiLoad 16/600 Superdex 200 pg, Cytiva). The pure protein was stored in a storage buffer 50 mM HEPES (pH 7.5), 300 mM NaCl, 5% glycerol at −80° C. Protein were characterized by SDS-PAGE, LC-MS and aSEC.
This example describes one illustrative method for determining the IC50 of the compounds of the present invention against AAK1 (amino acids T27-A365). AAK1 protein was dissolved at 20 nM in 1× enzyme solution (50 mM HEPES pH7.5, 10 mM MgCl2, 1 mM DTT, 1% glycerol, 0.5 mM EGTA, 0.01% Briji35, 0.02% BSA) and 12.5 ul was incubated with 250 nl DMSO or 250 nl compound in DMSO at 25° C. for 15 min. The reaction was started by addition of 12.5 ul of 30 uM AQT0759 (Assayquant, CSKS-AQT0759B) and 70 uM ATP which were diluted in 1× substrate dilution buffer (50 mM HEPES pH7.5, 10 mM MgCl2, 1 mM DTT, 1% glycerol, 0.5 mM EGTA, 0.01% Briji35).

AAK1, sequence (Q2M2I8 whole entry): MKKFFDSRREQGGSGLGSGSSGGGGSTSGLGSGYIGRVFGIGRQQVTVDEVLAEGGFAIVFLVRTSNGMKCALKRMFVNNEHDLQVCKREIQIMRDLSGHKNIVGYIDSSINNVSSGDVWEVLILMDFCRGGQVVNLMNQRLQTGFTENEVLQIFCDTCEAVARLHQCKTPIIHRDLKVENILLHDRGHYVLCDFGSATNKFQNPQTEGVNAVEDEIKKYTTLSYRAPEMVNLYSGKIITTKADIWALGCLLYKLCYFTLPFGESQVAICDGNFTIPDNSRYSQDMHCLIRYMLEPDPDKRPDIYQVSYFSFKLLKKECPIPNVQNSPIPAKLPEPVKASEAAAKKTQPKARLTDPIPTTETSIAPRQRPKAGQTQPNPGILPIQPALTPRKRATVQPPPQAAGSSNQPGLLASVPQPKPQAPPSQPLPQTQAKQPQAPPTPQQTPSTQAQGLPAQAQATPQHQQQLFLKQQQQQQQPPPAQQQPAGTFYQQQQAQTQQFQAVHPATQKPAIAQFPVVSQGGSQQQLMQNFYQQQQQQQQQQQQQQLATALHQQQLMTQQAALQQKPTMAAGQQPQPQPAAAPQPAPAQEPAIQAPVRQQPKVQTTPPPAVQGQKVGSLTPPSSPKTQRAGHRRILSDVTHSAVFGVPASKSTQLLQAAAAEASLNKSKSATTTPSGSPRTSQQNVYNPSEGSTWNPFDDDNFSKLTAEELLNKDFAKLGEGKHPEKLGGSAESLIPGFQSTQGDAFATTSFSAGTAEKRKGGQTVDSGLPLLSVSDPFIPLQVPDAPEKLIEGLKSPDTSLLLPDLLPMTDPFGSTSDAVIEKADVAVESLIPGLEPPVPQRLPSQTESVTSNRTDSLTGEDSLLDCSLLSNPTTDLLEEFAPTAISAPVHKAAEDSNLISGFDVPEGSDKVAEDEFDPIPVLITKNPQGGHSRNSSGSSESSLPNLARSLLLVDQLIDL

IC50 (AAK1) [nM]	IC50 [1] [nM]	Compound
> 1500	501 to 1500	O=C1C[C@H](OC(=O)N[C@@H]2CCN(c3ccn4ncc(-c5cccnc5OC5CC5)c4n3)C2)CN1 [Compound I-54, [(3S)-5-oxopyrrolidin-3-yl]N-[(3R)-1-[3-[2-(cyclopropoxy)-3-pyridyl]pyrazolo[1,5-a]pyrimidin-5-yl]pyrrolidin-3-yl]carbamate]
> 1500	> 1500	COc1cn2ncc(-c3cccnc3OC3CC3)c2nc1N1CCN(C(=O)O[C@H]2CC(=O)N(C)C2)CC1 [Compound I-110-9, [(3S)-1-methyl-5-oxo-pyrrolidin-3-yl]-4-[3-[2-(cyclopropoxy)-3-pyridyl]-6-methoxy-pyrazolo[1,5-a]pyrimidin-5-yl]piperazine-1-carboxylate]
> 1500	> 1500	O=C1C[C@H](OC(=O)N2CCN(c3ccn4ncc(-c5cccnc5NC5CNC5)c4n3)CC2)CN1 [Compound I-49, (S)-5-oxopyrrolidin-3-yl4-(3-(2-(azetidin-3-ylamino)pyridin-3-yl)pyrazolo[1,5-a]pyrimidin-5-yl)piperazine-1-carboxylate]
> 1500	151 to 500	NC(=O)[C@@H]1CN(c2ccn3ncc(-c4cccnc4OC4CC4)c3n2)CCN1C(=O)O[C@@H]1CNC(=O)C1 [Compound I-41-6, (S)-5-Oxopyrrolidin-3-yl-(S)-2-carbamoyl-4-(3-(2-cyclopropoxypyridin-3-yl)pyrazolo[1,5-a]pyrimidin-5-yl)piperazine-1-carboxylate]
> 1500	> 1500	O=C1C[C@H](OC(=O)N2CCN(c3ccn4ncc(-c5cccnc5OC5CC5)c4n3)C[C@H]2C(=O)O)CN1 [Compound I-41-4C, (S)-4-(3-(2-Cyclopropoxypyridin-3-yl)pyrazolo[1,5-a]pyrimidin-5-yl)-1-((((S)-5-oxopyrrolidin-3-yl)oxy)carbonyl)piperazine-2-carboxylic acid]
> 1500	> 1500	O=C(O[C@@H]1CC(=O)N(C2CCNCC2)C1)N1CCN(c2ccn3ncc(-c4cccnc4OC4CC4)c3n2)CC1 [Compound I-33, (R)-5-Oxo-1-(piperidin-4-yl)pyrrolidin-3-yl 4-(3-(2-cyclopropoxypyridin-3-yl)pyrazolo[1,5-a]pyrimidin-5-yl)piperazine-1-carboxylate]
> 1500	151 to 500	CN1C[C@@H](OC(=O)N2CCN(c3nc4c(-c5cccnc5OC5CCCCC5)cnn4cc3F)CC2)CC1=O [Compound I-123, [(3S)-1-methyl-5-oxo-pyrrolidin-3-yl]-4-[3-[2-(cyclohexoxy)-3-pyridyl]-6-fluoro-pyrazolo[1,5-a]pyrimidin-5-yl]piperazine-1-carboxylate]
> 1500	51 to 150	O=C1NCC[C@@H]1OC(=O)N1CCN(c2ccn3ncc(-c4cccnc4OC4CC4)c3n2)CC1 [Compound I-24, [(3S)-2-Oxopyrrolidin-3-yl]-4-[3-[2-(cyclopropoxy)-3-pyridyl]pyrazolo[1,5-a]pyrimidin-5-yl]piperazine-1-carboxylate]
> 1500	151 to 500	C[C@H]1CN(c2ccn3ncc(-c4cccnc4OC4CC4)c3n2)CCN1C(=O)O[C@@H]1CNC(=O)C1 [Compound I-40, [(3S)-5-Oxopyrrolidin-3-yl](2S)-4-[3-[2-(cyclopropoxy)-3-pyridyl]pyrazolo[1,5-a]pyrimidin-5-yl]-2-methyl-piperazine-1-carboxylate]
> 1500	151 to 500	COC(=O)[C@@H]1CN(c2ccn3ncc(-c4cccnc4OC4CC4)c3n2)CCN1C(=O)O[C@@H]1CNC(=O)C1 [Compound I-41-5, 2-Methyl 1-((S)-5-oxopyrrolidin-3-yl) (S)-4-(3-(2-cyclopropoxypyridin-3-yl)pyrazolo[1,5-a]pyrimidin-5-yl)piperazine-1,2-dicarboxylate]
> 1500	51 to 150	O=C1NCC[C@H]1OC(=O)N1CCN(c2ccn3ncc(-c4cccnc4OC4CC4)c3n2)CC1 [Compound I-23, [(3R)-2-oxopyrrolidin-3-yl]-4-[3-[2-(cyclopropoxy)-3-pyridyl]pyrazolo[1,5-a]pyrimidin-5-yl]piperazine-1-carboxylate]
> 1500	501 to 1500	Cc1cn2ncc(-c3cccnc3OC3CC3)c2nc1N1CCN(C(=O)O[C@H]2CC(=O)N(C)C2)CC1 [Compound I-111, [(3S)-1-methyl-5-oxo-pyrrolidin-3-yl]-4-[3-[2-(cyclopropoxy)-3-pyridyl]-6-methyl-pyrazolo[1,5-a]pyrimidin-5-yl]piperazine-1-carboxylate]
> 1500	501 to 1500	COC(=O)N1CC(Oc2ncccc2-c2cnn3ccc(N4CCN(C(=O)O[C@@H]5CC(=O)N(C6COC6)C5)CC4)nc23)C1 [Compound I-85, [(3R)-1-(oxetan-3-yl)-5-oxo-pyrrolidin-3-yl]-4-[3-[2-(1-methoxycarbonylazetidin-3-yl)oxy-3-pyridyl]pyrazolo[1,5-a]pyrimidin-5-yl]piperazine-1-carboxylate]
> 1500	151 to 500	C[C@@]1(OC(=O)N[C@@H]2CCN(c3ccn4ncc(-c5cccnc5OC5CC5)c4n3)C2)CCNC1 [Compound I-56, (R)-3-methylpyrrolidin-3-yl ((R)-1-(3-(2-cyclopropoxypyridin-3-yl)pyrazolo[1,5-a]pyrimidin-5-yl)pyrrolidin-3-yl)carbamate]
> 1500	151 to 500	N#C[C@@H]1CN(c2ccn3ncc(-c4cccnc4OC4CC4)c3n2)CCN1C(=O)O[C@@H]1CNC(=O)C1 [Compound I-41, (S)-5-Oxopyrrolidin-3-yl (S)-2-cyano-4-(3-(2-cyclopropoxypyridin-3-yl)pyrazolo[1,5-a]pyrimidin-5-yl)piperazine-1-carboxylate]
501 to 1500	51 to 150	O=C(O[C@H]1CO[C@H]2OCC[C@H]21)N1CCN(c2ccn3ncc(-c4ccccc4OC4CC4)c3n2)CC1 [Compound I-68, [(3aS,4R,6aR)-2,3,3a,4,5,6a-hexahydrofuro[2,3-b]furan-4-yl]4-[3-[2-(cyclopropoxy)phenyl]pyrazolo[1,5-a]pyrimidin-5-yl]piperazine-1-carboxylate]

Compound	IC50 (AAK1) [nM]	IC50 [1] [nM]
CN(C)CCN1CC[C@@](C)(OC(=O)N2CCN(c3ccn4ncc(-c5cccnc5OC5CC5)c4n3)CC2)C1 [Compound I-53, (R)-1-(2-(dimethylamino)ethyl)-3-(methylpyrrolidin-3-yl)-4-(3-(2-cyclopropoxypyridin-3-yl)pyrazolo[1,5-a]pyrimidin-5-yl)piperazine-1-carboxylate]	151 to 500	1 to 50
COC(=O)N1CC(Oc2ncccc2-c2cnn3ccc(N4CCN(C(=O)O[C@@H]5CC(=O)N(CCO)C5)CC4)nc23)C1 [Compound I-84, [(3R)-1-(2-hydroxyethyl)-5-oxo-pyrrolidin-3-yl]4-[3-[2-(1-methoxycarbonylazetidin-3-yl)oxy-3-pyridyl]pyrazolo[1,5-a]pyrimidin-5-yl]piperazine-1-carboxylate]	> 1500	151 to 500
CC1(OC(=O)N2CCN(c3ccn4ncc(-c5cccnc5OCC5CCC5)c4n3)CC2)COC1 [Compound I-19, 3-Methyloxetan-3-yl 4-(3-(2-(cyclobutylmethoxy)pyridin-3-yl)pyrazolo[1,5-a]pyrimidin-5-yl)piperazine-1-carboxylate]	> 1500	151 to 500
CC(C)(C)OC(=O)N1CC(Nc2ncccc2-c2cnn3ccc(N4CCN(C(=O)O[C@@H]5CNC(=O)C5)CC4)nc23)C1 [Compound I-48, [(3S)-5-oxopyrrolidin-3-yl]4-[3-[2-[(1-tert-butoxycarbonylazetidin-3-yl)amino]-3-pyridyl]pyrazolo[1,5-a]pyrimidin-5-yl]piperazine-1-carboxylate]	> 1500	501 to 1500
O=C(O[C@H]1CO[C@H]2OCC[C@H]21)N1CCN(c2ccn3ncc(-c4ccncn4)c3n2)CC1 [Compound I-67, [(3aS,4R,6aR)-2,3,3a,4,5,6a-hexahydrofuro[2,3-b]furan-4-yl]4-(3-pyrimidin-4-ylpyrazolo[1,5-a]pyrimidin-5-yl)piperazine-1-carboxylate]	> 1500	501 to 1500
